PubChem BioAssay (NCI)
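Grown in 96-well plates, cells were treated for 48 hours with each compound at five concentrations. Insufficient inhibition: endpoint recorded as highest concentration tested. GI50 = concentration required for 50% inhibition of growth. At the TGI there is no net growth.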

Key:
Test in all cases: inhibition of tumour cell growth, NCI panel, 48 h
786-0 renal = test system: 786-0 renal
KM12 colon = test system: KM12 colon
UACC-257 melanoma = test system: UACC-257 melanoma
HL-60(TB) leukemia = test system: HL-60(TB) leukemia
EKVX NSCLC = test system: EKVX NSCLC
SNB-19 CNS = test system: SNB-19 CNS
RPMI-8226 leukemia = test system: RPMI-8226 leukemia
NCI/ADR-RES ovarian = test system: NCI/ADR-RES ovarian
SR leukemia = test system: SR leukemia
U251 CNS = test system: U251 CNS
TK-10 renal = test system: TK-10 renal
SK-MEL-2 melanoma = test system: SK-MEL-2 melanoma
NCI-H522 lung = test system: NCI-H522 lung
PC-3 prostate = test system: PC-3 prostate
HCC-2998 colon = test system: HCC-2998 colon
HT29 colon = test system: HT29 colon
HOP-92 NSCLC = test system: HOP-92 NSCLC
SW-620 colon = test system: SW-620 colon
SK-MEL-5 melanoma = test system: SK-MEL-5 melanoma
HCT-15 colon = test system: HCT-15 colon
T-47D breast = test system: T-47D breast
K-562 leukemia = test system: K-562 leukemia
IGROV1 ovarian = test system: IGROV1 ovarian
NCI-H23 lung = test system: NCI-H23 lung
COLO 205 colon = test system: COLO 205 colon
UO-31 renal = test system: UO-31 renal
SF-295 CNS = test system: SF-295 CNS
OVCAR-3 ovarian = test system: OVCAR-3 ovarian
UACC-62 melanoma = test system: UACC-62 melanoma
LOX IMVI melanoma = test system: LOX IMVI melanoma
CCRF-CEM leukemia = test system: CCRF-CEM leukemia
HOP-62 NSCLC = test system: HOP-62 NSCLC
MOLT-4 leukemia = test system: MOLT-4 leukemia
CAKI-1 renal = test system: CAKI-1 renal
OVCAR-8 ovarian = test system: OVCAR-8 ovarian
OVCAR-5 ovarian = test system: OVCAR-5 ovarian
OVCAR-4 ovarian = test system: OVCAR-4 ovarian
MDA-MB-231 breast = test system: MDA-MB-231 breast
A498 renal = test system: A498 renal
BT-549 breast = test system: BT-549 breast
SNB-75 CNS = test system: SNB-75 CNS
A549 NSCLC = test system: A549 NSCLC
NCI-H460 lung = test system: NCI-H460 lung
SF-268 CNS = test system: SF-268 CNS
NCI-H226 lung = test system: NCI-H226 lung
MALME-3M melanoma = test system: MALME-3M melanoma
SK-OV-3 ovarian = test system: SK-OV-3 ovarian
SN12C renal = test system: SN12C renal
RXF 393 renal = test system: RXF 393 renal
MDA-MB-435 = test system: MDA-MB-435
MCF7 breast = test system: MCF7 breast
SF-539 CNS = test system: SF-539 CNS
DU-145 prostate = test system: DU-145 prostate
M14 melanoma = test system: M14 melanoma
ACHN renal = test system: ACHN renal
SK-MEL-28 melanoma = test system: SK-MEL-28 melanoma
HS 578T breast = test system: HS 578T breast
HCT-116 colon = test system: HCT-116 colon

O=C1Nc2ccccc2C1(c1ccc(O)c(F)c1)c1ccc(O)c(F)c1
GI50 (786-0 renal): 18.8 µM | TGI (786-0 renal): 44.1 µM | GI50 (KM12 colon): 3.07 µM | TGI (KM12 colon): 22.9 µM | GI50 (UACC-257 melanoma): 24.6 µM | TGI (UACC-257 melanoma): 67.5 µM | GI50 (HL-60(TB) leukemia): 15 µM | TGI (HL-60(TB) leukemia): 42.6 µM | GI50 (EKVX NSCLC): 4.31 µM | TGI (EKVX NSCLC): 43.5 µM | GI50 (SNB-19 CNS): 19.1 µM | TGI (SNB-19 CNS): 69 µM | GI50 (RPMI-8226 leukemia): 15.7 µM | TGI (RPMI-8226 leukemia): 52.6 µM | GI50 (NCI/ADR-RES ovarian): 0.389 µM | TGI (NCI/ADR-RES ovarian): > 100 µM | GI50 (SR leukemia): 3.83 µM | TGI (SR leukemia): > 52.3 µM | GI50 (U251 CNS): 14.5 µM | TGI (U251 CNS): 48.6 µM | GI50 (TK-10 renal): 0.409 µM | TGI (TK-10 renal): 11.3 µM | GI50 (SK-MEL-2 melanoma): 11.4 µM | TGI (SK-MEL-2 melanoma): 31.5 µM | GI50 (NCI-H522 lung): 11.5 µM | TGI (NCI-H522 lung): 31.3 µM | GI50 (PC-3 prostate): 1.08 µM | TGI (PC-3 prostate): 6.95 µM | GI50 (HCC-2998 colon): 4.72 µM | TGI (HCC-2998 colon): 25.3 µM | GI50 (HT29 colon): 22.7 µM | TGI (HT29 colon): 48.5 µM | GI50 (HOP-92 NSCLC): 2.36 µM | TGI (HOP-92 NSCLC): 16.6 µM | GI50 (SW-620 colon): 20.6 µM | TGI (SW-620 colon): 84.3 µM | GI50 (SK-MEL-5 melanoma): 14.7 µM | TGI (SK-MEL-5 melanoma): 29.9 µM | GI50 (HCT-15 colon): 8.34 µM | TGI (HCT-15 colon): 34.4 µM | GI50 (T-47D breast): 0.226 µM | TGI (T-47D breast): 0.622 µM | GI50 (K-562 leukemia): 11.6 µM | TGI (K-562 leukemia): > 100 µM | GI50 (IGROV1 ovarian): 3.19 µM | TGI (IGROV1 ovarian): 50.6 µM | GI50 (NCI-H23 lung): 0.532 µM | TGI (NCI-H23 lung): 25.2 µM | GI50 (COLO 205 colon): 0.297 µM | TGI (COLO 205 colon): 1.98 µM | GI50 (UO-31 renal): 11.9 µM | TGI (UO-31 renal): 42.8 µM | GI50 (SF-295 CNS): 12.5 µM | TGI (SF-295 CNS): 28.5 µM | GI50 (OVCAR-3 ovarian): 0.295 µM | TGI (OVCAR-3 ovarian): 0.918 µM | GI50 (UACC-62 melanoma): 10.2 µM | TGI (UACC-62 melanoma): 33.7 µM | GI50 (LOX IMVI melanoma): 0.53 µM | TGI (LOX IMVI melanoma): 15.8 µM | GI50 (CCRF-CEM leukemia): 17.8 µM | TGI (CCRF-CEM leukemia): 73.3 µM | GI50 (HOP-62 NSCLC): 16.9 µM | TGI (HOP-62 NSCLC): 44.5 µM | GI50 (MOLT-4 leukemia): 10.6 µM | TGI (MOLT-4 leukemia): 67 µM | GI50 (CAKI-1 renal): 17.6 µM | TGI (CAKI-1 renal): 55.4 µM | GI50 (OVCAR-8 ovarian): 0.333 µM | TGI (OVCAR-8 ovarian): 3.49 µM | GI50 (OVCAR-5 ovarian): 16.4 µM | TGI (OVCAR-5 ovarian): 44.1 µM | GI50 (OVCAR-4 ovarian): 0.237 µM | TGI (OVCAR-4 ovarian): 0.659 µM | GI50 (MDA-MB-231 breast): 13.4 µM | TGI (MDA-MB-231 breast): 35.5 µM | GI50 (A498 renal): 11.1 µM | TGI (A498 renal): 27.4 µM | GI50 (BT-549 breast): 0.166 µM | TGI (BT-549 breast): 0.593 µM | GI50 (SNB-75 CNS): 0.661 µM | TGI (SNB-75 CNS): 36.5 µM | GI50 (A549 NSCLC): 19.1 µM | TGI (A549 NSCLC): 81.8 µM | GI50 (NCI-H460 lung): 19 µM | TGI (NCI-H460 lung): 47.8 µM | GI50 (SF-268 CNS): 16.1 µM | TGI (SF-268 CNS): 62.1 µM | GI50 (NCI-H226 lung): 11 µM | TGI (NCI-H226 lung): 39.7 µM | GI50 (MALME-3M melanoma): 13.7 µM | TGI (MALME-3M melanoma): 46.6 µM | GI50 (SK-OV-3 ovarian): 21.1 µM | TGI (SK-OV-3 ovarian): 52 µM | GI50 (SN12C renal): 0.353 µM | TGI (SN12C renal): 12.2 µM | GI50 (RXF 393 renal): 0.969 µM | TGI (RXF 393 renal): 10.5 µM | GI50 (MDA-MB-435): 3.06 µM | TGI (MDA-MB-435): 11.2 µM | GI50 (MCF7 breast): 0.27 µM | TGI (MCF7 breast): 2.81 µM | GI50 (SF-539 CNS): 12.6 µM | TGI (SF-539 CNS): 36.8 µM | GI50 (DU-145 prostate): 11.9 µM | TGI (DU-145 prostate): 42.7 µM | GI50 (M14 melanoma): 12 µM | TGI (M14 melanoma): 65.5 µM | GI50 (ACHN renal): 3.07 µM | TGI (ACHN renal): > 84 µM | GI50 (SK-MEL-28 melanoma): 14.4 µM | TGI (SK-MEL-28 melanoma): 52 µM | GI50 (HS 578T breast): 0.3 µM | TGI (HS 578T breast): 4.44 µM | GI50 (HCT-116 colon): 11.6 µM | TGI (HCT-116 colon): 52.7 µM
